The text below walks through data of US20030125322A1, “Crystalline form I of 2-methyl-4-(4-methyl-1-piperazinyl) 10H thieno [2,3-b][1,5]benzodiazepine” (SUN PARMACEUTICAL INDUSTRIES LIMITED, priority 2001, published 2003).

SMILES strings stand for the structures. “Also recorded” adds a separate entry of the source.

The nature of series [1]: Storage stability of the crystalline form (colour, infrared spectrum, x-ray diffractogram). In kind it is physicochemical. The settings on record: for change in colour, Infrared spectrum and X-ray diffractogram on storage: accelerated conditions. From the text:
The crystalline Form I of 2-methyl-4-(4-methyl-1-piperazinyl)-10H-thieno[2,3-b][1,5]benzodiazepine of the present invention has a typical x-ray powder diffraction pattern as represented by d (interplanar spacing) values 9.9446, 8.5272, 8.1949, 6.8637, 6.3510, 5.4653, 4.8278, 4.7121, 4.5295, 4.2239, 4.0788, 3.8230, 3.7525, 3.6909, 3.4995, 3.3393, 3.1051, 2.9451, 2.8182, 2.7589, 2.5925, 2.3369, 2.0251, 1.9183; infrared absorbance bands at approximately 1456, 1365, 905, 757, 662 & 604 cm^−1 and a stable colour.

The conditions of series [2]: cited from earlier work; for colour stability on standing / storage: prior-art material as reported ('382 process Form I; '541 Form II).

With `Cc1cc2c(s1)Nc1ccccc1N=C2N1CCN(C)CC1` [Form I, 2-methyl-4-(4-methyl-1-piperazinyl)-10H-thieno[2,3-b][1,5]benzodiazepine], the “change in colour, Infrared spectrum and X-ray diffractogram on storage” value in series [1] (40° C. and 75% relative humidity for one month) was “no changes in colour, infra-red spectrum and x-ray diffractogram”; in series [1] (40° C. and 75% relative humidity for one month, listed as Example 2) it was “No change in colour, Infrared spectrum (KBr) and X-ray diffractogram”; in series [1] (75-80° C. for 25 days), “no changes in colour, infra-red spectrum and x-ray diffractogram”; in series [1] (75-80° C. for 25 days, listed as Example 2) it was “No change in colour, Infrared spectrum (KBr) and X-ray diffractogram”. For the same compound, the “change in colour, infrared spectrum and x-ray diffractogram on storage” value in series [1] (ambient conditions of storage, about 15° C. to 35° C. and about 40% to 90% RH) is “no change in colour, infrared spectrum and x-ray diffractogram”. For the same compound, the “change in colour, Infrared spectrum (KBr) and X-ray diffractogram on storage” value in series [1] (ambient conditions of storage, room temperature for one month) was “No change in colour, Infrared spectrum (KBr) and X-ray diffractogram”. In addition, the “stability of crystal form” value in series [2] (Form I obtained by the '382 process, as reported) was “metastable”. For the same compound, in series [2], the “colour stability on standing / storage” value is “colour changes upon storage and exposure to air; also recorded: change its colour on standing”.
In the case of `Cc1cc2c(s1)Nc1ccccc1N=C2N1CCN(C)CC1` [Form II, olanzapine, reference compound], the “colour stability on standing / storage” value in series [2] is on record as “satisfactory colour stability”.
